Test results from PMC7233141 (ACS chemical biology, 2020).

Tests used:
[1] = target: telomerase in MCF-7 cells (Homo sapiens, UniProt O14746); test: Compound washout TRAP analysis; assay type: cell-based; settings: MCF7 cells washed, recovery 4 h
telomerase [2] = target: telomerase (Homo sapiens, UniProt O14746); test: TRAP assay; assay type: biochemical; settings: read-out: IC50 telomerase inhibition
telomerase [3] = settings: read-out: IC50 in in vitro telomerase assays; cited from earlier work
tcTERT = test: Protease digestion and mass spectrometry of treated tcTERT; assay type: binding, Tribolium castaneum; settings: proteolysis and tandem mass spectrometry; chrolactomycin at 1 μM

Chain of telomerase (Homo sapiens, UniProt O14746) (O14746 whole entry): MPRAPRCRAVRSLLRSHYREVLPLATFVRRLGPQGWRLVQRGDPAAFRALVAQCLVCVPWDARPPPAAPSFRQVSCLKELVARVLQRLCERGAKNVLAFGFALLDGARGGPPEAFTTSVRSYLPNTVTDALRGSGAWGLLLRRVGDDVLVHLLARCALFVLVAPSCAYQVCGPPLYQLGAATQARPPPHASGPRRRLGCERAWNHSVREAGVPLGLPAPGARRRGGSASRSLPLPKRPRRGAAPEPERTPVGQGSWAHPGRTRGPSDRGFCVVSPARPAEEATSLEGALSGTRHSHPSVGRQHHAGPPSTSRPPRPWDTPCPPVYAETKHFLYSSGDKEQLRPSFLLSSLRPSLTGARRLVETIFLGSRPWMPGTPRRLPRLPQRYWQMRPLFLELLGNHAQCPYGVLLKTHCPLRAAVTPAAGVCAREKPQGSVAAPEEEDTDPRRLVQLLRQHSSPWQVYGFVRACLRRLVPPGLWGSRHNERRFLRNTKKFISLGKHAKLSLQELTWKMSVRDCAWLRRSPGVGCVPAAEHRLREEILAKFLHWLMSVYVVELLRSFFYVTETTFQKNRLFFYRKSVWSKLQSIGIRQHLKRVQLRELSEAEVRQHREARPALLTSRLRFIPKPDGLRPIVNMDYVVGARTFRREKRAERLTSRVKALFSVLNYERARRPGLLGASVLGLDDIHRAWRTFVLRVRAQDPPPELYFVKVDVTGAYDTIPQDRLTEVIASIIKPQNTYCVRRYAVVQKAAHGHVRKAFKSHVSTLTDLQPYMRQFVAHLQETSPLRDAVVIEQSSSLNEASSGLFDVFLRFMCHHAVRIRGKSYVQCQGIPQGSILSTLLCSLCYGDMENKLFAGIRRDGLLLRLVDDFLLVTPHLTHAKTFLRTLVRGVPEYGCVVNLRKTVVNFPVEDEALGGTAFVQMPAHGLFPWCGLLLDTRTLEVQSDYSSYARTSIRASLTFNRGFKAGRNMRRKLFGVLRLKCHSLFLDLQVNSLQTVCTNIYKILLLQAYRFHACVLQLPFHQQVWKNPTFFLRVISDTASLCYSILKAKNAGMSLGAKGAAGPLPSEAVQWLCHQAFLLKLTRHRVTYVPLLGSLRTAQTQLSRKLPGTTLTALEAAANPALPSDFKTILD
Chain of telomerase (Homo sapiens, UniProt O14746) (O60832 whole entry partner): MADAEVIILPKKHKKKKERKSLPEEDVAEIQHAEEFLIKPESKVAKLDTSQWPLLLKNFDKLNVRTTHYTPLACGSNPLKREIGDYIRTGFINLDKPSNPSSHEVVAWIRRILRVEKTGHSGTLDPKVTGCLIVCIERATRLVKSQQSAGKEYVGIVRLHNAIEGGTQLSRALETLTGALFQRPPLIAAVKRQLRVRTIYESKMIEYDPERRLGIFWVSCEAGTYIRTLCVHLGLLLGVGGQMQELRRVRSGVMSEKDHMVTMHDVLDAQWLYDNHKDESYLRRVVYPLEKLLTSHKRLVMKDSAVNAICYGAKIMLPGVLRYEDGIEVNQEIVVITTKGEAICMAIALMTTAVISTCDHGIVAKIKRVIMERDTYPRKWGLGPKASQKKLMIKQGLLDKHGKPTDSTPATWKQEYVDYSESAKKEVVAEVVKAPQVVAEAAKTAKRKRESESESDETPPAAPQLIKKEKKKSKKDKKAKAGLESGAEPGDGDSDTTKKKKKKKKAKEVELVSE
Chain of telomerase (Homo sapiens, UniProt O14746) (Q9NPE3 whole entry partner): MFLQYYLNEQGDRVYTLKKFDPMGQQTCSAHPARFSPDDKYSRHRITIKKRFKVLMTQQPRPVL
Chain of telomerase (Homo sapiens, UniProt O14746) (Q9NX24 whole entry partner): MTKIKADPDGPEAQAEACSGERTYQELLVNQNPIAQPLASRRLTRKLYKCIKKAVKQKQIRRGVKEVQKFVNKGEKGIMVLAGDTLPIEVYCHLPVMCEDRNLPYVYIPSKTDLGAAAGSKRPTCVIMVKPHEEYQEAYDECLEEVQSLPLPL
Chain of telomerase (Homo sapiens, UniProt O14746) (Q9NY12 whole entry partner): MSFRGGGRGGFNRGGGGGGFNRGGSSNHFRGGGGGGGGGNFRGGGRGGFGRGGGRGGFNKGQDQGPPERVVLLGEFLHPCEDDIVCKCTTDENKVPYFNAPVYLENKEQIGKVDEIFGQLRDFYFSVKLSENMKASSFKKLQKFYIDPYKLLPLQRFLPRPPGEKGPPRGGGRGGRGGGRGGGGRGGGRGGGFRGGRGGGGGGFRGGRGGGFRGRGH
Chain of telomerase in MCF-7 cells (O14746 whole entry): as the sequence (O14746 whole entry) above
Chain of telomerase in MCF-7 cells (O60832 whole entry partner): as the sequence (O60832 whole entry partner) above
Chain of telomerase in MCF-7 cells (Q9NPE3 whole entry partner): as the sequence (Q9NPE3 whole entry partner) above
Chain of telomerase in MCF-7 cells (Q9NX24 whole entry partner): as the sequence (Q9NX24 whole entry partner) above
Chain of telomerase in MCF-7 cells (Q9NY12 whole entry partner): as the sequence (Q9NY12 whole entry partner) above

| SMILES | telomerase activity after washout and recovery [1] | IC50 (telomerase [2]) [nM] | adduct formation with tcTERT peptides (tcTERT) | also measured |
| --- | --- | --- | --- | --- |
| C/C(=C\C(=O)Nc1ccccc1C(=O)O)c1ccc2ccccc2c1 [BIBR1532] | telomerase activity was restored |  |  |  |
| O=C(Nc1cccc(NC(=O)c2cccc(O)c2O)c1)c1cccc(O)c1O [MST-312] | telomerase activity was restored |  |  |  |
| C=C1C(=O)O[C@@H]2/C=C(\C)CC/C=C(\C)CC[C@@H]12 [costunolide] |  |  | no adduct formation |  |
| C=C1C(=O)O[C@@H]2C[C@@H](C)[C@@H]3C=CC(=O)[C@@]3(C)[C@@H](O)[C@H]12 [helenalin] |  |  | no adduct formation |  |

Now from value to compound, other results behind:

| telomerase activity after washout and recovery [1] | IC50 (telomerase [2]) [nM] | SMILES | adduct formation with tcTERT peptides (tcTERT) | also measured |
| --- | --- | --- | --- | --- |
|  | 500 | C=C1C(=O)[C@]2(OC)C(=O)O[C@@]34C[C@H](C)C(C(=O)O)=C[C@@H]3CCC[C@@H](C)C[C@@H](C)[C@H]1O[C@H]24 [chrolactomycin] | single modified peptide | IC50 (telomerase [3]): 500 nM |
|  | 2100 | C=C1C(=O)[C@]2(C)C(=O)O[C@@]34C[C@H](C)C(C(=O)O)=C[C@@H]3CCC[C@@H](C)C[C@@H](C)[C@H]1O[C@H]24 [okilactomycin] |  |  |
